Reference: publication PMC9021288 (Nature Communications, 2022)
Read-outs that look alike come from different tables or passages of the source.

Key:
[1] = human
[2] = mouse
[3] = rat

C[C@@H](CNC(=O)[C@H](O)C(C)(C)CO)NC(=O)c1cc(F)c(F)cc1F [MMV693183-08]
Blood to Plasma ratio Avg(n=2) [1]: 0.97
Blood to Plasma ratio Avg(n=2) [2]: 0.98
Blood to Plasma ratio Avg(n=2) [3]: 0.91
